Structures are written as SMILES. Where a SMILES comes first, the peptide text is derived from it. The star is where a group is joined. Cbz = O=C(OCc1ccccc1)*

For ten molecules, Ki and Ratio results are on record in ChEMBL document CHEMBL1130790, “Peptidyl human heart chymase inhibitors. 2. Discovery of highly selective difluoromethylene ketone derivatives with Glu at P3 site” (Bioorg Med Chem Lett, 1998).

Assay [1] concerns the target T1, Chymase (Homo sapiens, UniProt P23946).
T1 sequence (P23946 whole entry): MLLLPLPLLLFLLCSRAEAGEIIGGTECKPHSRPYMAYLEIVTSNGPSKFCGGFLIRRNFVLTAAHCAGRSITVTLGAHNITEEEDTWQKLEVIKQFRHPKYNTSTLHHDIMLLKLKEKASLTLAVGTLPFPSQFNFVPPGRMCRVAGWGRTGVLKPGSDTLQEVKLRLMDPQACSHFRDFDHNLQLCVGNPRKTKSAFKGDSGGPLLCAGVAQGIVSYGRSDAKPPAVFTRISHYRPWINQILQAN
Description: Compound was evaluated for inhibitory activity against human heart chymase (HHC).

Assay [2] in a line: Selectivity ratio of Bovine chymotrypsin (BCT-Ki) to human heart chymase (HHC-Ki).

As a reminder, the Ki is the dissociation constant of the complex between target and ligand, obtained from inhibition or displacement. The molecule `CC(C)(C)OC(=O)NC(CCC(=O)O)C(=O)N1CCC[C@H]1C(=O)NC(Cc1ccccc1)C(=O)C(F)(F)C(=O)Nc1cccc(S(N)(=O)=O)c1` (stereo partly specified) displayed a Ki in assay [1] of 27.5 nM. Besides, in assay [2], the Ratio was found to be 38.

As to `CC(C)(C)OC(=O)NC(CCC(=O)O)C(=O)N1CCC[C@H]1C(=O)NC(Cc1ccccc1)C(=O)C(F)(F)C(=O)Nc1cc(C(=O)O)c2ccccc2c1` (stereo partly specified), the Ki in assay [1] came out at 14.2 nM.

Molecule `CC(C)C(NC(=O)OC(C)(C)C)C(=O)N1CCC[C@H]1C(=O)NC(Cc1ccccc1)C(=O)C(F)(F)C(=O)Nc1cccc(C(=O)O)c1` (stereo partly specified) gave a Ki in assay [1] of 5.6 nM.

Molecule `CCCCNS(=O)(=O)c1cccc(NC(=O)C(F)(F)C(=O)C(Cc2ccccc2)NC(=O)[C@@H]2CCCN2C(=O)C(CCC(=O)O)NC(=O)OC(C)(C)C)c1` (stereo partly specified) displayed a Ki in assay [1] of 22.8 nM.

Take `CC(C)(C)OC(=O)NC(CCC(=O)O)C(=O)N1CCC[C@H]1C(=O)NC(Cc1ccccc1)C(=O)C(F)(F)C(=O)Nc1cc(C(=O)O)cs1` (stereo partly specified): in assay [1], the affinity corresponds to a Ki of 6 nM. Moreover, in assay [2], the Ratio is more than 16700.

Regarding `CC[C@H](C)[C@H](NC(=O)OCc1ccccc1)C(=O)N[C@@H](CCC(=O)O)C(=O)N1CCC[C@H]1C(=O)N[C@@H](Cc1ccccc1)C(=O)OC` (Cbz-IEPF-OMe), in assay [1], the Ki worked out at 3 nM.

In assay [1], `CC(C)(C)OC(=O)NC(CCC(=O)O)C(=O)N1CCC[C@H]1C(=O)NC(Cc1ccccc1)C(=O)C(F)(F)C(=O)Nc1cccc(C(N)=O)c1` (stereo partly specified) showed a Ki of 21.1 nM. In assay [2], the Ratio is 58.

Regarding `CC(C)(C)OC(=O)NC(CCC(=O)O)C(=O)N1CCC[C@H]1C(=O)NC(Cc1ccccc1)C(=O)C(F)(F)C(=O)Nc1cccc(CC(=O)O)c1` (stereo partly specified), the Ki in assay [1] came to 6.7 nM. In assay [2], the Ratio worked out at 590.

In the case of `CC(C)(C)OC(=O)NC(CCC(=O)O)C(=O)N1CCC[C@H]1C(=O)NC(Cc1ccccc1)C(=O)C(F)(F)C(=O)Nc1cccc(C(=O)O)c1` (stereo partly specified), the Ki in assay [1] came out at 3.9 nM. Besides, the Ratio in assay [2] was 332.

For `CC(C)(C)OC(=O)NC(CC(=O)O)C(=O)N1CCC[C@H]1C(=O)NC(Cc1ccccc1)C(=O)C(F)(F)C(=O)Nc1cccc(C(=O)O)c1` (stereo partly specified), in assay [1], the Ki came out at 36.6 nM. Also, the Ratio in assay [2] came to 2730.
